Assay results as given in patent publication US6835755B1, “Naphthoquinone derivatives and their use in the treatment and control of tuberculosis” (priority 1999, dated 2004).
Converted amounts (≈) assume the structure as drawn.

Test system: resistant strains of Mycobacterium tuberculosis
Experiment: microbe, parasite or virus in culture
Type: cell-based
Details: for ΔGI values of plant extracts: at MIC, mean ± s.d.

SMILES | ΔGI values of plant extracts (Two drug (isoniazid and rifampicin) resistant strain CCKO28469V) | MIC (Minimal inhibitory concentration) (Two drug (isoniazid and rifampicin) resistant strain CCKO28469V, radiometric method) | ΔGI values of plant extracts (2 drug resistant strain (res. to isoniazid and rifampicin)) | ΔGI values of plant extracts (3 drug resistant strain (res. to streptomycin, isoniazid and ethambutol)) | MIC (3 drug resistant strain (res. to streptomycin, isoniazid and ethambutol), radiometric method) | ΔGI values of plant extracts (4 drug resistant strain (res. to streptomycin, isoniazid, rifampicin and ethambutol)) | MIC (4 drug resistant strain (res. to streptomycin, isoniazid, rifampicin and ethambutol), radiometric method) | ΔGI values of plant extracts (5 drug resistant strain (res to isoniazid, streptomycin, rifampicin, thiacetazone and cyclocerine)) | MIC (5 drug resistant strain (res to isoniazid, streptomycin, rifampicin, thiacetazone and cyclocerine), radiometric method) | ΔGI values of plant extracts (6 drug resistant strain (res. to isoniazid, rifampicin, ethionamide, terizidone, thiacetazone and ofloxacin)) | MIC (6 drug resistant strain (res. to isoniazid, rifampicin, ethionamide, terizidone, thiacetazone and ofloxacin), radiometric method) | ΔGI values of plant extracts (7 drug resistant strain (res to isoniazid, streptomycin, ethambutol, kanamycin, rifampicin, and ethionamide)) | MIC (7 drug resistant strain (res to isoniazid, streptomycin, ethambutol, kanamycin, rifampicin, and ethionamide), radiometric method) | MIC (Mycobacterium tuberculosis)
Cc1cc(O)c2c(c1)C(=O)C=CC2=O [7-methyljuglone, 5-hydroxy-7-methyl-1,4-naphtoquinone] | 0 ± 0 | 50 mg/L (≈ 266 µM) | – | – | – | – | – | – | – | – | – | – | – | –
Cc1cc(O)c2c(c1)C(=O)C(c1c(C)cc3c(c1O)C(=O)C=CC3=O)=CC2=O [diospyrin, 5,5′ dihydroxy 7,7′ binaphthoquinone] | – | – | 3.5 mg/mL | 4 ± 2.12 mg/mL | 100 mg/L (≈ 267 µM) | 5 ± 2.82 mg/mL | 100 mg/L (≈ 267 µM) | 10 ± 1.41 mg/mL | 100 mg/L (≈ 267 µM) | 9 ± 2.82 mg/mL | 100 mg/L (≈ 267 µM) | 13.5 ± 3.2 mg/mL | 100 mg/L (≈ 267 µM) | 100 mg/L (≈ 267 µM)
